In one data set the test system is L-1 sarcoma cells. To be noted: in vivo; cited from earlier work.
The test system of data set [1] is B16-F0 murine melanoma cells. As to the kind of experiment: in vivo metastasis test, syngeneic tumor metastasis model of melanoma B16-F0 cells in C57BL/6J mice. To be noted: for % Inhibition: vs vehicle control. On the procedure: An in vivo metastasis test was performed, wherein groups of 6 (positive control), 6 (Morinda citrifolia-PPT test group), and 9 (vehicle control) immunocompetent (6-8 weeks old), pathogen-free (SPF) C57BL/6 male mice were used in this study and bred in animal isolator (IVC racks) under specific pathogens free (SPF) condition at 23±1° C. Viable B16F0 murine melanoma cells (ATCC CRL-6322, 6×10^4 in 0.2 mL) were inoculated into experimental mice intravenously, via tail vein. Mice were administered the Morinda citrifolia-PPT, 1% in drinking water ad libitum, for one week prior to tumor cell implantation and three weeks afterwards. Additionally, 0.8 mg Morinda citrifolia-PPT/mouse was injected intraperitoneally (IP) for 21 consecutive days following tumor cell implantation. Concurrently, the reference agent, mitomycin, was administrated IP at 1 mg/Kg twice per week for six doses after tumor cell implantation.
(§1) In the vehicle control group, the distilled water was administrated at 10 ml/Kg IP for three consecutive weeks. The body weight for all mice was recorded at day 1, day 8, day 15, and day 22 following tumor cell implantation. The lungs were excised and fixed 21 days after tumor inoculation. Metastatic nodules on the lung surface were then counted under a dissecting microscope. The student's t test was used to determine the statistical difference between the groups of treatment and vehicle control groups in a statistic analysis.
Relating to the Table 1 above, viable B16-F0 murine melanoma cells were inoculated into C57B1/6J mice. Mice were administered ad libitum 1% Morinda citrifolia-PPT one week prior to the implantation and throughout the experiment. […] distilled water (vehicle control), 0.8 mg/m and 4 mg/mouse of Morinda citrifolia-PPT were injected I.P. into mice for 21 consecutive days following the inoculation. Mitomycin was used as a positive control and injected twice a week at 1 mg/Kg for a total of six doses. The lungs were excised and fixed at the end of experiment and the metastasis nodules on the lung surface were counted under a dissecting microscope. The test was used to determine the significant difference between the groups of treatment and vehicle control. (SEM=standard error of mean; ^b p<0.006; ^c p<0.005.)
In the syngeneic tumor metastasis model of melanoma B16-F0 cells in C57BL/6J mice, MDA-4 was administered at 1% (10 mg/ml) by a drinking method for one week for pre-treatment, and for three weeks after the tumor cells were implanted, during the study and throughout the experiment for a total of 28 treatments. Additionally, MDA-4 at a dose of 0.8 mg/mouse was administered intraperitoneally (IP) daily for a total of 21 consecutive days after tumor cells were implanted in the mice.
During the experiment, the test substance MDA-4 was provided by Morinda, Inc. and used for in vivo anti-metastasis studies. MDA-4 was dissolved in sterile distilled water and, as stated, administrated with 1% (10 mg/ml) drinking method for one week pre-treatment, and three week after tumor cells were implanted during the study throughout the experiment for a total of 28 treatments. Additionally, as stated, MDA-4 at dose of 0.8 mg/mouse was administrated intraperitoneally (IP) daily for a total of 21 consecutive days after tumor cells implanted.
The murine melanoma cell line, B16-F0 (ATCC CRL-6322), was purchased from American Type Culture Collection and Dulbecco's Modified Eale's medium, 90% with Fetal Bovine Serum, 10% was used as culture medium. The tumor cells were incubated in an atmosphere containing 5% CO2 at 37° C. The medium was supplemented with 1% Antibiotic-Antimycotic.
Specific pathogen-free male C57BL/6J mice at 6-8 weeks of age, weighing 24-28 gms were provided by National Taiwan University Animal Center. The animals were housed in Individually Ventilated Cages Racks (IVC Racks, 36 Mini Isolator System) under Specific Pathogen-Free (SPF) conditions throughout the experiment. […]

Data set [2] can be described thus: body weight post-implantation and toxic symptoms in the metastasis study. The class given is in vivo, mice. On the procedure: as §1
In data set [3] the test system is NRK 2 cells, fibronectin-coated well. The data set can be described thus: adhesion of NRK 2 cells to a fibronectin-coated well. The class given is cell-based, rat. The procedure:
One assay measured the adhesion of NRK 2 (normal rat kidney cell, ATCC CRL-6509) cells to a fibronectin-coated well. Morinda citrifolia-PPT, the 0.1 N NaCl Morinda citrifolia-PPT fraction, GRGDSP peptide (SIGMA), and 0.4% DMSO (SIGMA, vehicle control) in modified MEM-HEPES buffer pH 7.4 (Hyclone) were incubated in separate wells for 30 minutes at 37° C. The reaction was initiated by addition of NRK 2 cells (2×10^6/ml) and run for 30 minutes. Each well was then washed 6 times with Dulbecco's PBS (Hyclone) followed by addition of 5 μM calcein AM (SIGMA) and a further 2 hour incubation period. Quantitation of fluorescent intensity, resulting from interaction of calcein AM with cells attached to the fibronectin coated plate, was read by a SpectrFluor Plus plate reader (AG Flwith excitation at 485 nm and emission at 535 nm.
Relating to Table 3, NRK 2 cells were used to adhere to fibronectin-coated wells. Quantitation of fluorescent intensity resulting from interaction of calcein AM with cells attached to the fibronectin coated plate was read by a SpectrFluor Plus plate reader.

For the next data set, the system named is Lu-ECAM-1. As to conditions: among a series of carbohydrates; cited from earlier work.
The mark [4] stands for this setting: individual mouse, R = diameter of nodule.

“And” between values parts separate entries of the source, which are not always exact repeats. Equal values may be shown once. Marks after values point to notes of the source that are not given here.

Consider `O=C[C@H](O)[C@@H](O)[C@@H](O)[C@H](O)CO` [D-galactose], for which the “inhibition of liver metastasis” value in the data set with L-1 sarcoma cells was “inhibit”.

`CO[C@@]12[C@H](COC(N)=O)C3=C(C(=O)C(C)=C(N)C3=O)N1C[C@@H]1N[C@@H]12` [Mitomycin]: the metastasis inhibition in data set [1] (PPT at 0.8 mg/mouse combined with free drinking, mitomycin at 1 mg/Kg) was 55%. Besides, the “% Inhibition” value in data set [1] (Table 1, PPT 0.8 mg/mouse, mitomycin 1 mg/Kg) is listed as 60%^c. Further, the “No. of Metastastic Nodules in the Lung” value in data set [1] (Table 4, mean ± SEM, MDA-4 drinking 1% x28 & IP 0.8 mg/mouse x21, mitomycin IP 1 mg/kg x6) was found to be 22 ± 2. For the same molecule, the “% Inh.” value in data set [1] (Table 4, vs vehicle, MDA-4 drinking 1% x28 & IP 0.8 mg/mouse x21, mitomycin IP 1 mg/kg x6) came out at 55%. Further, the “No. of Metastastic Nodules in the Lung, Total Nodules, X ± SEM” value in data set [1] (Table 5, group mean) was 22 ± 2. In addition, the “No. of Metastastic Nodules in the Lung, Total Nodules” value in data set [1] (Table 5, individual mouse) is 23 and 24 and 19. In data set [1] (Table 5, MDA-4 drinking 1% x28 & IP 0.8 mg/mouse x21, mitomycin IP 1 mg/kg x6), the “% Inhibition” value amounted to 55%. For the same molecule, in data set [1] (setting [4]), the “No. of Metastastic Nodules in the Lung, 1 mm<” value was 6 and 7 and 4; the “No. of Metastastic Nodules in the Lung, R < 1 mm” value is 16 and 17 and 15; the “No. of Metastastic Nodules in the Lung, R > 2 mm” value was 1 and 0 (2×). Besides, in data set [1] (individual mouse, lungs excised 21 days after inoculation, PPT 0.8 mg/mouse IP x21 + 1% in drinking water, mitomycin 1 mg/Kg IP x6), the “No. of Metastasis Nodules in the Lung” value was 23 and 24 and 19. Moreover, in data set [2] (group mean), the “Body Weight of Post-Implantation, Day 1, Mean ± SEM” value worked out at 27.7 ± 0.9 g; the “Body Weight of Post-Implantation, Day 8, Mean ± SEM” value is on record as 28.0 ± 0.6 g; the “Body Weight of Post-Implantation, Day 15, Mean ± SEM” value stood at 27.3 ± 0.9 g; the “Body Weight of Post-Implantation, Day 22, Mean ± SEM” value is listed as 27.3 ± 0.9 g. The “body weight change compared to the vehicle control group” value in data set [2] (in words) is given as “no body weight increase”. For the same molecule, in data set [2] (individual mouse), the “Body Weight of Post-Implantation, Day 1” value was 28 g and 29 g and 26 g; the “Body Weight of Post-Implantation, Day 8” value was 28 g and 29 g and 27 g; the “Body Weight of Post-Implantation, Day 15” value was 27 g and 29 g and 26 g; the “Body Weight of Post-Implantation, Day 22” value is 27 g and 29 g and 26 g.

On to arabinogalctose, for which the “inhibition of liver metastasis” value in the data set with L-1 sarcoma cells is given as “inhibit”.

Turning to GRGDSP peptide, the “Percentage adhesion inhibition, fibronectin mediated” value was 16 in data set [3] (Conc. 31.25 μg/ml); 22 in data set [3] (Conc. 62.5 μg/ml); 43 in data set [3] (Conc. 125 μg/ml); 78 in data set [3] (Conc. 250 μg/ml); 98 in data set [3] (Conc. 500 μg/ml).

For the molecule `CC(=O)NC1C(OC2C(O)C(CO)OC(OC3C(CO)OC(O)C(O)C3O)C2O)OC(CO)C(O)C1OC1OC(CO)C(O)C(O)C1OC1OC(C)C(O)C(O)C1O` (stereo not shown) [Lacto-N-fucopentose I], the “blocking of adhesion of B16-F10 to Lu-ECAM-1” value in the data set on Lu-ECAM-1 is “most effectively blocked adhesion”.

Source of the values: patent US20060269631A1, “Morinda citrifolia-based formulation for inhibiting metastasis of carcinogenic cells” (priority 2003, published 2006).
